Experimental data: patent US20260262656A1, “COMPOSITION AND METHOD FOR PROMOTING COLONIZATION OF ARBUSCULAR MYCORRHIZAL FUNGI” (National University Corporation Tottori University, priority 2022, published 2026)

Key:
[1] = system: Arbuscular mycorrhizal fungus Rhizophagus irregularis DAOM197198; test: Hyphal branching of AM fungus cultured on gel media; format: cell-based; settings: for hyphal branch numbers compared to the negative control: FIG. 2; for hyphal branch numbers compared to the negative control / activity for promoting hyphal branching (hyphal branch number per spore): Steel test; for hyphal branching activity compared with positive control GR24: GR24 at 100 nM, FIG. 1 and FIG. 2; for activity for promoting hyphal branching (hyphal branch number per spore): concentration range tested 1 to 100 nM, 7-10 days
Description: • Arbuscular mycorrhizal fungus Rhizophagus irregularis DAOM197198 (Premier Tech Biotechnologies)
The spores of the AM fungi were separated and cultured on gels according to the conventional procedures outlined below.
1. In a 50 mL centrifuge tube, Gastrografin aqueous solutions having different densities were gently layered in the order of 50% (10 mL), 32% (5 mL), 16% (5 mL), and 8% (5 mL), and finally 5 mL of a spore suspension of R. irregularis (hereinafter called the AM fungus) was loaded, and centrifugation was performed at 500 g for 10 minutes.
2. The spores separated in the density gradient from the above were collected on a cell strainer and washed with sterilized water 3 times.
3. The spores were suspended in sterilized water at 4000 spores/mL.
4. A 4 μL drop (about 8 spores) each of the spore suspension diluted to 2000 spores/mL was put in the center portion of the M medium (New Phytol. 108:211-218), which had been dispensed in a 24-well plate at 350 μL each.
5. After it was left for 5 minutes to allow excess moisture to evaporate, 200 μL each of 0.3% Phytagel (3 mM MgSO4) at a temperature of about 50° C. was gently poured over the spores. Three to four wells were prepared per treatment group.
6. They were cultured in the dark for 5 days at 25° C. to let the spores germinate in advance.
1. rac-GR24 (hereinafter denoted as GR24), a synthetic strigolactone known to have a hyphal branching activity for the AM fungi, was used as a positive control. From the GR24 stored in acetone, the solvent was removed in vacuo, and GR24 was resuspended in distilled water and sterilized with a 0.45 μm filter.
2. For the other test substances, dry solids were dissolved in distilled water and filter-sterilized as above.
3. 200 μL each of the test solutions was added dropwise onto the Phytagel media comprising the germinated spores obtained in (2) above. The AM fungi were treated using sterilized water as a negative (Mock) control and with GR24 at a final concentration of 100 nM as a positive control.
4. Culturing was performed in the dark for 7-10 days at 25° C.
5. Hyphal branching numbers were measured under a stereomicroscope.
The hyphae that extended and branched directly from the hyphal stem had complex structures and branched well irrespective of the treatment conditions, and therefore they were excluded from the measurements of hyphal branching numbers. […]

[2] = system: common broomrape (Orobanche minor) seeds; test: Bioassay using common broomrape seeds (germination); format: cell-based; settings: FIG. 5
Source text: The seeds of the genus Orobanche and genus Striga plants, which are root-parasitic weeds, have the property to germinate in response to strigolactones released from the roots of agricultural plants which serve as hosts. These root-parasitic weeds are causing serious damage to crop production worldwide. This poses a hindrance to the external application of strigolactone as an agent for promoting arbuscular mycorrhizal fungus colonization.
Effect of gentiopicroside (GPS) on the germination of common broomrape (Orobanche minor), a parasitic weed of the genus Orobanche, was investigated. Experiments were performed according to the following experimental procedures.
(1) Common broomrape seeds were placed in a nylon mesh that had been shaped into a pouch (2 cm×2 cm×2 cm) by a sealer, and the opening of the pouch was closed.
(2) The seeds, together with the pouch, were placed in a 1% sodium hypochlorite aqueous solution to sterilize the surface for 20 minutes, and then washed 3 times with sterilized water.
(3) The pouch containing the seeds was placed on a filter paper dampened with sterilized water, and allowed to absorb water for 10 days at 25° C. in the dark.
(4) 6 mm paper discs contained in a 96-well plate were moistened by adding 15 μL distilled water dropwise.
(5) A new paper disc was placed on the paper disc of (4) above, and 20 μL of the test solution was added dropwise. Distilled water was used as a negative control (Mock) and 1 μM strigolactone (GR24) as a positive control. For the solvent for GPS, methanol was chosen due to its volatility.
(6) For treating the common broomrape seeds with both GR24 and GPS, one reagent was first added dropwise, and after complete evaporation of the solvent, the other reagent was then added.
(7) After the discs were left for 5 minutes to remove the solvent by evaporation, the common broomrape seeds of (3) above, which had been transferred to distilled water, were added together with the water as 5 μL drops.
(8) After 5 days of culturing at 25° C. in the dark, the germination rates of the common broomrape were measured.

Rhizophagus clarus HR1 = test: Hyphal branching of a different AM fungus (as in Example 1); format: cell-based; settings: FIG. 6
Description: Essentially the same experiments as described in Example 1 were carried out, except that a different arbuscular mycorrhizal fungus, Rhizophagus clarus HR1, was used. […] The compositions of the present disclosure can increase hyphal branching of diverse arbuscular mycorrhizal fungi included in the order Glomerales besides those exemplified here.

[3] = system: AM fungi colonizing tomato (Solanum lycopersicum L. cv. Sugar Lump) root; test: AM fungal colonization of host plant root in plant box: tomato; format: in vivo; settings: 4 weeks, FIG. 4b
Description: (§1) To confirm that the identified active compounds not only promote hyphal branching of the AM fungi but also actually lead to increases of colonization and symbiosis with diverse plants, tests were carried out using lisianthus (Eustoma grandiflorum cv. Pink Thumb), tomato (Solanum lycopersicum L. cv. Sugar Lump), and chive (Allium schoenoprasum) as host plants.
(§2) Culturing of the host plants and AM fungal colonization and treatments with the active compounds were performed according to the following procedures. […]
(§3) Colonization rates of the AM fungi were measured according to the following procedures. […]
(§4) (4) Using a light microscope having an ocular lens fitted with an ocular micrometer, the stage was moved perpendicular to the root (in the Y-axis direction), and when the crosshair of the ocular micrometer touched the root, presence or absence of AM fungal hyphae in the root within the field of view was examined. The rate of hyphal invasion, i.e. colonization rate, as a total was calculated according to the following formula. […]
(§5) The rate of arbuscule formation was calculated according to the above formula by replacing the numerator in parentheses, on the right-hand side of the equation, with “number of fields of view in which arbuscules were seen”.

[4] = system: AM fungi colonizing chive (Allium schoenoprasum) root; test: AM fungal colonization of host plant root in plant box: chive; format: in vivo
Description: as §1, §2, §3, §4
The rate of arbuscule formation was calculated according to the above formula by replacing the numerator in parentheses, on the right-hand side of the equation, with “number of fields of view in which arbuscules were seen”. […]

[5] = system: AM fungi colonizing lisianthus (Eustoma grandiflorum cv. Pink Thumb) root; test: AM fungal colonization of host plant root in plant box: lisianthus; format: in vivo; set-up: AM fungal colonization rates compared with positive control gibberellin (GA): dose or concentration left out as unconfirmed; settings: for root colonization events compared to the mock treatment: 4 weeks
Description: as §1
Culturing of the host plants and AM fungal colonization and treatments with the active compounds were performed according to the following procedures.
(1) Plant box was assembled in 3 tiers: the top tier served as a lid having openings for ventilation, the middle tier was a box to which the culture soil (300 mL river sand) had been added, and the bottom tier was an empty box.
(2) The plant box of (1) above was sterilized by autoclaving (121° C., 20 minutes).
(3) To the culture soil of the middle box, 1000 spores of the AM fungi and 50 mL of the Hoagland hydroponic solution at a 1/10 concentration were added, and stirred with forceps. The active compounds such as GPS were added to the Hoagland hydroponic solution to treat the AM fungi and host plants.
(4) In order to prevent drying of the culture soil, 50 mL of the Hoagland hydroponic solution at a 1/10 concentration was also added to the bottom box. A twisted piece of KimWipe was placed through a hole provided at the bottom of the middle box, with the lower tip of the Kim Wipe soaked into the solution in the bottom box, and therefore the culture soil was maintained without becoming dry.
(5) Six seedlings of each host plant were planted per plant box, and cultured for 4 weeks in a culture chamber set at 24° C. and 14 hour light cycle.
(6) After completing the culturing period above, the root of each host plant was sampled and preserved in an FAA fixative solution.
Colonization rates of the AM fungi were measured according to the following procedures.
(1) The root fixed in said fixative solution was cut into 1 cm fragments and immersed in a 10% KOH aqueous solution, and heated at 90° C. for 15 minutes. […]
as §4, §5

Molecule | hyphal branch numbers compared to the negative control [1] | hyphal branching activity compared with positive control GR24 [1] | activity for promoting hyphal branching (hyphal branch number per spore) ([1]; FIG. 1) | hyphal branching (Rhizophagus clarus HR1) | other results
COC(=O)C1=CO[C@@H](O[C@@H]2O[C@H](CO)[C@@H](O)[C@H](O)[C@H]2O)[C@@H]2C(CO)=CC[C@H]12 [Geniposide] | increased the hyphal branch numbers significantly | lower activities compared to GR24 and Loganin | – | – | –
CC1=C[C@H](O/C=C2/C(=O)O[C@@H]3c4ccccc4C[C@H]23)OC1=O (racemic) [GR24, rac-GR24, reference compound] | – | – | – | – | germination rate of the common broomrape seeds ([2]; 1 μM GR24, 5 days at 25° C. in the dark): ~100%; hyphal branch number per spore compared to the Mock treatment ([1]; positive control, 100 nM, 7-10 days at 25° C. in the dark, FIG. 1): significant increase; hyphal branching (Rhizophagus clarus HR1; positive control, 100 nM): significant increases
C=C[C@H]1[C@H](O[C@@H]2O[C@H](CO)[C@@H](O)[C@H](O)[C@H]2O)OC=C2C(=O)OCC[C@]21O [SWM, Swertiamarin] | – | comparable to or greater than that of GR24 | significantly high activities for promoting hyphal branching | significant increases | –
COC(=O)C1=CO[C@@H](O[C@@H]2O[C@H](CO)[C@@H](O)[C@H](O)[C@H]2O)[C@@H]2[C@@H](C)[C@@H](O)C[C@H]12 [Loganin] | had the activity for the AM fungi to promote hyphal branching | comparable to those of Gentiopicroside and Swertiamarin and the positive control GR24 | – | – | –
Oleuropein | increased the hyphal branch numbers significantly | lower activities compared to GR24 and Loganin | – | – | –
C=C[C@@H]1C2=CCOC(=O)C2=CO[C@H]1O[C@@H]1O[C@H](CO)[C@@H](O)[C@H](O)[C@H]1O [GPS, Gentiopicroside] | – | comparable to or greater than that of GR24 | significantly high activities for promoting hyphal branching | significant increases | germination of the common broomrape seeds ([2]; 1 to 1000 nM GPS alone, 5 days at 25° C. in the dark): did not germinate at all; germination rates of the common broomrape seeds ([2]; GPS treatment in the concurrent presence of GR24 treatment): ~100%; GPS concentration giving maximum average colonization rate of the AM fungi [3]: 100 nM; AM fungal colonization rate ([4]; 1 nM (lowest concentration tested), Dunnett's test): statistically significant increase; GPS concentration giving maximum average colonization rate of the AM fungi ([4]; 4 weeks, FIG. 4c): 10 nM; root colonization events compared to the mock treatment ([5]; 10 nM, Dunnett's test): statistically significant increase; root colonization events compared to the mock treatment ([5]; GPS treatments, FIG. 4a): increasing trend; outside-of-root hyphae of the AM fungi in the rhizosphere ([5]; GPS treatments, FIG. 4a, left): vigorously branching; AM fungal colonization rates compared with positive control gibberellin (GA) ([5]; positive control gibberellin): overall lower
